The values that follow come from patent US7799955B2, “Isoflavone metabolites” (priority 1999, dated 2010).

Structures are written as SMILES. ≈ marks a conversion by molar mass, not a printed value. Like-named read-outs stand apart in the source and are kept apart here.

Test [1] has as its system MDA-MB-468 (estrogen negative) cancer cells. As to the kind of experiment: Inhibition of MDA-MB-468 (estrogen negative) breast cancer cells. Type of test: cell-based. The note with it: for IC50, MDA-MB-468 cells / IC50: day 6; for IC50: Homo sapiens, MDA-MB-468, 144 h.
Test [2] concerns MCF-7 cells. As to the kind of experiment: MTS in vitro cytotoxicity / cell viability assay on MCF-7 breast cancer cells. Type of test: cell-based. The conditions noted are these: for IC50: Homo sapiens; for inhibition of MCF7 cells at low concentration / proliferative activity of cancer cells at low concentration: concentrations of less than or equal to 10 μM. As for the experimental part: Compound A was compared with genistein to test the cell viability of MCF-7 cells. […] The cell viability was tested using the MTS in vitro cytotoxicity assay. This is considered the most convenient assay because of its ease of use, accuracy and rapid indication of toxicity (Malich G et al., Toxicology 124(3): 179-92 (1997).

The next test relates to LNCap cells. The experiment in a line: IC50 against LNCap cells. In kind it is cell-based. The conditions noted are these: Homo sapiens.
The next test deals with PC3 cells. The experiment in a line: IC50 against PC3 cells. Type of test: cell-based. The note with it: Homo sapiens, PC-3.
For test [3], the system named is MCF-7 cells. The note with it: cited from earlier work; for effect on growth of MCF-7 cells at low concentration: at <10 μM.
The mark [4] stands for this setting: day 6 of incubation, Examples 10 and 11.
The mark [5] stands for this setting: MCF7, Example 8 table, read-out: IC50 against MCF-7 cells.
The mark [6] stands for this setting: MCF7, 24 h, 1 day of incubation, Example 8, read-out: IC50, cell viability of MCF-7 cells.
Setting [7] is: MCF7, 48 h, 2 days of incubation, Example 8, read-out: IC50, cell viability of MCF-7 cells.
The mark [8] stands for this setting: MCF7, 72 h, 3 days of incubation, Example 8, read-out: IC50, cell viability of MCF-7 cells.
The mark [9] stands for this setting: MCF7, 144 h, day 6 of incubation, Examples 10 and 11, read-out: IC50, MCF-7 estrogen positive breast cancer cells.
[10] abbreviates: MCF7, 8 hours incubation, Example 9, read-out: IC50, MCF7 cells.
Where [11] appears, read: MCF7, Example 9, incubation time not given, read-out: IC50, inhibitory effect on MCF7 cells (no significant effect).

For the compound `CC(C(=O)c1c(O)cc(O)cc1O)c1ccc(O)cc1` (centres unmarked) [6-hydroxy-O-Dma], the “IC50, MDA-MB-468 cells” value in test [1] was 43 µg/mL (≈ 157 µM). For the same compound, the “IC50, MCF-7 estrogen positive breast cancer cells” value in the test with MCF-7 cells [2] (setting [4]) was 33 µg/mL (≈ 120 µM).

For `CC(C(=O)c1ccc(O)cc1O)c1ccc(O)c(O)c1` (centres unmarked) [(V), 1-(2,4,dihydroxyphenyl)-2-(3,4-dihydroxyphenyl)-propan-1-one], in the test with MCF-7 cells [2] (setting [5]), the IC50 lay within 10 to 20 µg/mL (≈ 36.5 to 72.9 µM).

Regarding `C=C(C(=O)c1ccc(O)cc1O)c1ccc(O)c(O)c1` [(VI), 1-(2,4-di-hydroxyphenyl)-2-(3,4-dihydroxyphenyl)-prop-2-cn-1-one], the IC50 stood at 3.2 µg/mL (≈ 11.8 µM) in the test with MCF-7 cells [2] (setting [5]), 7 µg/mL (≈ 25.7 µM) in the test on LNCap cells and 6.2 µg/mL (≈ 22.8 µM) in the test with PC3 cells.

Turning to `O=C1c2ccc(O)cc2OCC1c1ccc(O)c(O)c1` (centres unmarked) [(VII), 3′-hydroxy-dihydrodaidzen], the IC50 in the test on MCF-7 cells [2] (setting [5]) was about 28 µg/mL (≈ 103 µM).

As to `C=C(C(=O)c1cc(O)c(O)cc1O)c1ccc(O)cc1` [(VIII), 1-(2,4,5-trihydroxyphenyl)-2-(4-hydroxyphenyl)-prop-2-cn-1-one], in the test on MCF-7 cells [2] (setting [5]), the IC50 is under 8 µg/mL.

Turning to `CC(C(=O)c1cc(O)c(O)cc1O)c1ccc(O)cc1` (centres unmarked) [Compound A, 1-(2,4,5-trihydroxyphenyl)-2-(4-hydroxyphenyl)-propan-1-one], the IC50 in test [1] stood at 6.8 µg/mL (≈ 24.8 µM); in the test with MCF-7 cells [2] (setting [6]), 6 µg/mL (≈ 21.9 µM); with MCF-7 cells [2] (setting [7]), 6.5 µg/mL (≈ 23.7 µM); in the test on MCF-7 cells [2] (setting [8]) it was 7 µg/mL (≈ 25.5 µM); with MCF-7 cells [2] (setting [9]) it was 2.1 µg/mL (≈ 7.66 µM); in the test with MCF-7 cells [2] (setting [10]), 6 µg/mL (≈ 21.9 µM). Also, the IC50 with MCF-7 cells [2] (setting [5]) lay in the range of 6 to 10 µg/mL (≈ 21.9 to 36.5 µM); with MCF-7 cells [2] (MCF7, incubations at 24, 48, 72 and 144 hours, Example 9, read-out: IC50, MCF7 cells), 4 to 7 µg/mL (≈ 14.6 to 25.5 µM). Also, the “times more inhibitive than O-Dma and 6-hydroxy-O-Dma” value in test [1] (MDA-MB-468, day 6) is on record as 3-7 times. In addition, in the test with MCF-7 cells [2] (2.5 micrograms/ml, within 8 hours of incubation and at days 1 and 2), the “effect on growth of MCF-7 cells at low concentration” value (shortened to “effect on growth of MCF-7 cells”) was “inhibited the growth”. Also, the “inhibition of MCF7 breast cancer cells compared with genistein, daidzein, precursors and metabolites” value with MCF-7 cells [2] (concentrations of 15-40 μg/ml, Example 9) is on record as “significant inhibition”. For the same compound, the “inhibition of MCF7 cells at low concentration” value with MCF-7 cells [2] (Example 9) is “no significant inhibition”. Also, in the test with MCF-7 cells [2] (MCF7, Example 9), the “proliferative activity of cancer cells at low concentration” value is listed as “no proliferative activity”.

Consider `O=c1c(-c2ccc(O)cc2)coc2cc(O)c(O)cc12` [Factor 2, 6,7,4′-trihydroxyisoflavone], for which, in the test with MCF-7 cells [2] (setting [9]), the IC50 came to 12 µg/mL (≈ 44.4 µM).

As to `CC(C(=O)c1ccc(O)cc1O)c1ccc(O)cc1` (centres unmarked) [O-Dma, O-desmethylangolensin], the “IC50, MDA-MB-468 cells” value in test [1] turned out to be 20 µg/mL (≈ 77.4 µM). In addition, the “IC50, MCF-7 estrogen positive breast cancer cells” value in the test with MCF-7 cells [2] (setting [4]) worked out at 38 µg/mL (≈ 147 µM).

As for `COc1ccc(-c2coc3cc(O)cc(O)c3c2=O)cc1` [biochanin A], in the test on MCF-7 cells [2] (MCF7, 72 and 144 hours incubation, Example 9, read-out: IC50, inhibitory effect on MCF7 cells), the IC50 is 18 to 23 µg/mL (≈ 63.3 to 80.9 µM). The “effect on growth of MCF-7 cells” value in the test on MCF-7 cells [3] is recorded as “can enhance the growth”.

In the case of `O=c1c(-c2ccc(O)cc2)coc2cc(O)ccc12` [daidzein], in the test with MCF-7 cells [2] (setting [11]), the IC50 was at least 36 µg/mL. Besides, in the test with MCF-7 cells [3], the “effect on growth of MCF-7 cells” value is listed as “can enhance the growth”.

As to `Oc1ccc([C@H]2COc3cc(O)ccc3C2)cc1` [equol], the IC50 in the test with MCF-7 cells [2] (setting [11]) was at least 36 µg/mL. In the test on MCF-7 cells [3], the “effect on growth of MCF-7 cells” value is listed as “can enhance the growth”.

With `COc1ccc(-c2coc3cc(O)ccc3c2=O)cc1` [formononetin], in the test on MCF-7 cells [2] (setting [11]), the IC50 was at least 36 µg/mL.

In the case of `O=c1c(-c2ccc(O)cc2)coc2cc(O)cc(O)c12` [genistein], the IC50 in test [1] is 8.8 µg/mL (≈ 32.6 µM); with MCF-7 cells [2] (setting [6]), 32 µg/mL (≈ 118 µM); with MCF-7 cells [2] (setting [7]), 22 µg/mL (≈ 81.4 µM); in the test on MCF-7 cells [2] (setting [8]), 15 µg/mL (≈ 55.5 µM); in the test with MCF-7 cells [2] (MCF7, 144 h, 6 days of incubation, Example 8, read-out: IC50, cell viability of MCF-7 cells) it was 18 µg/mL (≈ 66.6 µM); in the test on MCF-7 cells [2] (setting [10]) it was over 40 µg/mL. Also, the IC50 with MCF-7 cells [2] (MCF7, 48 hours incubation, Example 9, read-out: IC50, MCF7 cells) is 38 µg/mL (≈ 141 µM); in the test on MCF-7 cells [2] (MCF7, 144 hours incubation, Example 9, read-out: IC50, MCF7 cells), 15 µg/mL (≈ 55.5 µM); with MCF-7 cells [3] (induced by 1-(o-chlorophenyl)-1-(p-chlorophenyl)-2,2,2-trichloroethane, 5-octylphenol, 4-nonylphenol, read-out: IC50, inhibition of proliferation of MCF-7 cells induced by environmental chemicals), 25 to 33 µM. Further, the “effect on growth of MCF-7 cancer cells at low concentration” value in the test on MCF-7 cells [2] (concentrations <10 μM, Example 8) was “enhance rather than inhibit the growth”. Also, in the test on MCF-7 cells [2] (Example 9), the “inhibition of MCF7 cells at low concentration” value is “no significant inhibition”. For the same compound, in the test with MCF-7 cells [2] (MCF7, Example 9), the “proliferative activity of cancer cells at low concentration” value is listed as “some proliferative activity”. Moreover, the “effect on growth of MCF-7 cells” value in the test with MCF-7 cells [3] is given as “can enhance the growth”.
